Experimental data as given in patent US7119105B2, “Methods for treating neurodegenerative disorders using aspartyl protease inhibitors” (The Regents of the University of California, priority 1997, dated 2006).
Like-named read-outs stand apart in the source and are kept apart here. Each block holds one compound with its values, some of them ahead of it.

Key:
human liver cathepsin D = molecular target: T1, human liver cathepsin D (Homo sapiens, UniProt P07339); experiment: High-throughput fluorometric cathepsin D assay (library screen); assay type: biochemical; settings: for inhibition at 0.33 µM: read-out: Inhibition of Cathepsin D in Library Screen; for inhibition at 0.1 µM: 100 nM inhibitor
T1 construct: human liver cathepsin D (Calbiochem); purchased Calbiochem; host or cells: human liver
Text: Compounds capable of inhibiting cathepsin D can readily be identified using the assays described herein which measure a change in the hydrolysis of a peptide substrate. More particularly, a fluorometric high through-put assay for activity toward human liver cathepsin D (Calbiochem) can be used to screen the compounds of the present invention for their ability to inhibit cathepsin D. This assay was previously described by G. A. Kraft, et al., Methods Enzymol. 241, 70-86 (1994), the teachings of which are incorporated herein by reference. […] T. Baldwin, et al., Proc. Natl. Acad. Sci., U.S.A. 90, 6796-6800 (1993)). Generally, the reactants are mixed, the reaction is allowed to proceed for a specific period of time and the fluorescence of the reaction products is monitored to determine the extent to which the peptide substrate has been cleaved. […] 241, 70-86 (1994). As such, following the methods of the present invention, compounds can be readily synthesized and screened to identify compounds that inhibit cathepsin D. Briefly, a fluorometric high through-put assay for activity toward human liver cathepsin D (Calbiochem) was performed in 96-well microtiter plates (G. A. Krafft, et al., Methods Enymol. 241, 70-86 (1994)). […] T. Baldwin, et al., Proc. Natl. Acad. Sci., U.S.A. 90, 6796-6800 (1993)). The assay was performed in […] Microfluor fluorescence microtiter plates, and readings were taken on a Perkin-Elmer LS-50B with an attached 96-well plate reader. The excitation wavelength was 340 nm. A 340 nm interference filter (Hoya, U-340) for excitation and a 430 nm cut-off filter for emission were used. […] The fluorescent unit readings were taken at three time points within the linear region of the substrate cleavage, and percent activity of the enzyme was determined by comparing the change of fluorescent units (FU) for each well to the average change in FU for six control wells without inhibitor.

cathepsin D = cathepsin D (Homo sapiens, UniProt P07339); experiment: Cathepsin D cuvette assay for IC50 and inhibition constants (Ki); assay type: biochemical
Text: Compounds capable of inhibiting cathepsin D can readily be identified using the assays described herein which measure a change in the hydrolysis of a peptide substrate. More particularly, a fluorometric high through-put assay for activity toward human liver cathepsin D (Calbiochem) can be used to screen the compounds of the present invention for their ability to inhibit cathepsin D. This assay was previously described by G. A. Kraft, et al., Methods Enzymol. 241, 70-86 (1994), the teachings of which are incorporated herein by reference. […] T. Baldwin, et al., Proc. Natl. Acad. […] Generally, the reactants are mixed, the reaction is allowed to proceed for a specific period of time and the fluorescence of the reaction products is monitored to determine the extent to which the peptide substrate has been cleaved. […] 241, 70-86 (1994). As such, following the methods of the present invention, compounds can be readily synthesized and screened to identify compounds that inhibit cathepsin D. [table]

[1] = 330 nM inhibitor, crude compound, approximate concentration
[2] = Table V second generation, conditions as Table IV
[3] = Table V second generation, conditions as Table IV, Ki ≈ IC50 − Et/2
[4] = crude compound, approximate concentration
[5] = Table IV, substrate 2.5 μM, cathepsin D 10 nM, Ki ≈ IC50 − Et/2
[6] = Table VI, P1-varied 204 compound library, purified

cathepsin D, sequence (P07339 65-412): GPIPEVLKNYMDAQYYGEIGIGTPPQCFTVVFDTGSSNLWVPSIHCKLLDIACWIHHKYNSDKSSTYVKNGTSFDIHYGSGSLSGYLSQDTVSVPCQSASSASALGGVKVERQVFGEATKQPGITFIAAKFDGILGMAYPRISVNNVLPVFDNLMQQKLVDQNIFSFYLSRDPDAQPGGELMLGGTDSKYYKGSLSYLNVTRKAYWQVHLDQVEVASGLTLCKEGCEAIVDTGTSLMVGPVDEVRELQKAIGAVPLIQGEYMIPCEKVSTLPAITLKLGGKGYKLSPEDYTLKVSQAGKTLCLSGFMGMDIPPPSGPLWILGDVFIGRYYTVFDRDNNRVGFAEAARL
T1 sequence (P07339 169-412 limits assumed): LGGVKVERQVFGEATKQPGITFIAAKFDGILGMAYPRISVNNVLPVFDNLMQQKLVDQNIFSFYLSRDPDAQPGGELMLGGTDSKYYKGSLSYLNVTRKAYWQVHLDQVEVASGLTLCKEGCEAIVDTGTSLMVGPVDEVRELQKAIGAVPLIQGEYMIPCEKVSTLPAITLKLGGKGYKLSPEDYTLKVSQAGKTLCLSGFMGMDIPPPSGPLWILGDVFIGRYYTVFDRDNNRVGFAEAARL
T1 sequence (P07339 65-162 limits assumed): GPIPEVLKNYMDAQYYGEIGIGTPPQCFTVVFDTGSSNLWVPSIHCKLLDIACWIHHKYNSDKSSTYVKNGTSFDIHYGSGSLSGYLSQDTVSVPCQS

SMILES: O=C(COc1cccc(Cl)c1)N[C@@H](Cc1ccccc1)[C@@H](O)CN(CCc1ccc2c(c1)OCO2)C(=O)CCN1C(=O)c2ccccc2C1=O [EHR]
IC50 (cathepsin D; [2]): 0.02 ± 0.002 µM
Ki (cathepsin D; [3]): 0.015 µM

SMILES: O=C(CCN1C(=O)c2ccccc2C1=O)N[C@@H](Cc1ccccc1)[C@@H](O)CN(CCc1ccc2c(c1)OCO2)C(=O)CCN1C(=O)c2ccccc2C1=O [EHH]
inhibition at 0.33 µM (human liver cathepsin D; [1]): ≥ 50%

SMILES: O=C(CCN1C(=O)c2ccccc2C1=O)N[C@@H](Cc1ccccc1)[C@@H](O)CN(CCc1ccc(Cl)cc1Cl)C(=O)CCc1ccc(Cl)c(Cl)c1 [FFH]
inhibition at 0.33 µM (human liver cathepsin D; [1]): ≥ 50%

SMILES: COc1ccc(C(=O)N[C@@H](Cc2ccccc2)[C@@H](O)CN(CCc2ccc(Cl)cc2Cl)C(=O)CCN2C(=O)c3ccccc3C2=O)c(Cl)c1OC [FHJ]
inhibition at 0.33 µM (human liver cathepsin D; [1]): ≥ 50%

SMILES: O=C(CCN1C(=O)c2ccccc2C1=O)N[C@@H](Cc1ccccc1)[C@@H](O)CN(CCc1ccc2c(c1)OCO2)C(=O)CCc1ccc(Cl)c(Cl)c1 [EFH]
inhibition at 0.33 µM (human liver cathepsin D; [1]): ≥ 50%

SMILES: COc1ccc(C(=O)N[C@@H](Cc2ccccc2)[C@@H](O)CN(CCc2ccc3c(c2)OCO3)C(=O)CCN2C(=O)c3ccccc3C2=O)c(Cl)c1OC [EHJ]
inhibition at 0.1 µM (human liver cathepsin D; [4]): ≥ 50%
inhibition at 0.33 µM (human liver cathepsin D; [1]): ≥ 50%
Ki (cathepsin D; [5]): 0.111 ± 0.008 µM

SMILES: COc1cc(Br)c(C(=O)N[C@@H](Cc2ccc(Br)cc2)[C@@H](O)CN(CCc2ccc(Cl)cc2Cl)C(=O)CCN2C(=O)c3ccccc3C2=O)cc1OC [Qbcf]
Ki (cathepsin D; [6]): 0.0067 ± 0.0007 µM

SMILES: COc1ccc(C(=O)N[C@@H](Cc2ccccc2)[C@@H](O)CN(CCc2ccc3c(c2)OCO3)C(=O)/C=C/c2c(Cl)cccc2Cl)c(Cl)c1OC [EGJ]
inhibition at 0.33 µM (human liver cathepsin D; [1]): ≥ 50%

SMILES: O=C(/C=C/c1c(Cl)cccc1Cl)N[C@@H](Cc1ccccc1)[C@@H](O)CN(CCc1ccc2c(c1)OCO2)C(=O)CCN1C(=O)c2ccccc2C1=O [EHB]
inhibition at 0.33 µM (human liver cathepsin D; [1]): ≥ 50%

SMILES: O=C(COc1ccc(Cl)cc1Cl)N[C@@H](Cc1ccccc1)[C@@H](O)CN(CCc1ccc2c(c1)OCO2)C(=O)CCN1C(=O)c2ccccc2C1=O [EHM]
IC50 (cathepsin D; [2]): 0.014 ± 0.002 µM
Ki (cathepsin D; [3]): 0.009 µM

SMILES: COc1ccc(C(=O)N[C@@H](Cc2ccccc2)[C@@H](O)CN(CCc2ccc3c(c2)OCO3)C(=O)COc2c(Cl)cc(Cl)cc2Cl)c(Cl)c1OC [EAJ]
inhibition at 0.33 µM (human liver cathepsin D; [1]): ≥ 50%

SMILES: COc1ccc(C(=O)N[C@@H](Cc2ccccc2)[C@@H](O)CN(CCc2ccc3c(c2)OCO3)C(=O)CCc2ccc(Cl)c(Cl)c2)c(Cl)c1OC [EFJ]
inhibition at 0.33 µM (human liver cathepsin D; [1]): ≥ 50%

SMILES: COc1cc(Br)c(C(=O)N[C@@H](Cc2cccc(Oc3ccccc3)c2)[C@@H](O)CN(CCc2ccc(Cl)cc2Cl)C(=O)CCN2C(=O)c3ccccc3C2=O)cc1OC [Kbcf]
Ki (cathepsin D; [6]): 0.0019 ± 0.0002 µM

SMILES: O=C(N[C@@H](Cc1ccccc1)[C@@H](O)CN(CCc1ccc2c(c1)OCO2)C(=O)CCN1C(=O)c2ccccc2C1=O)c1ccc([N+](=O)[O-])cc1Cl [EHF]
inhibition at 0.33 µM (human liver cathepsin D): ≥ 50%

SMILES: O=C(CCn1c(=O)oc2ccccc21)N[C@@H](Cc1ccccc1)[C@@H](O)CN(CCc1ccc2c(c1)OCO2)C(=O)CCc1ccc(Cl)c(Cl)c1 [EFA]
inhibition at 0.1 µM (human liver cathepsin D; [4]): ≥ 50%
inhibition at 0.33 µM (human liver cathepsin D; [1]): ≥ 50%
Ki (cathepsin D; [5]): 0.171 ± 0.025 µM

The next lines start with the values.

inhibition at 0.33 µM (human liver cathepsin D; [1]): ≥ 50%
SMILES: O=C(CCc1ccc2c(c1)OCO2)N[C@@H](Cc1ccccc1)[C@@H](O)CN(CCc1ccc2c(c1)OCO2)C(=O)CCc1ccc(Cl)c(Cl)c1 [EFI]

inhibition at 0.33 µM (human liver cathepsin D; [1]): ≥ 50%
SMILES: O=C(N[C@@H](Cc1ccccc1)[C@@H](O)CN(CCc1ccc(Cl)cc1Cl)C(=O)CCN1C(=O)c2ccccc2C1=O)c1ccc([N+](=O)[O-])cc1Cl [FHF]

IC50 (cathepsin D; [2]): 0.229 ± 0.044 µM
Ki (cathepsin D; [3]): 0.224 µM
SMILES: Cc1ccc(CCN(C[C@H](O)[C@H](Cc2ccccc2)NC(=O)COc2cc(Cl)c(Cl)cc2Cl)C(=O)CCN2C(=O)c3ccccc3C2=O)cc1 [UHD]

inhibition at 0.1 µM (human liver cathepsin D; [4]): ≥ 50%
inhibition at 0.33 µM (human liver cathepsin D; [1]): ≥ 50%
Ki (cathepsin D; [5]): 0.131 ± 0.012 µM
SMILES: O=C(CCn1c(=O)oc2ccccc21)N[C@@H](Cc1ccccc1)[C@@H](O)CN(CCc1ccc2c(c1)OCO2)C(=O)CCN1C(=O)c2ccccc2C1=O [EHA]

Ki (cathepsin D; [6]): 0.0026 ± 0.0002 µM
SMILES: COc1cc(Br)c(C(=O)N[C@@H](Cc2ccc3ccccc3c2)[C@@H](O)CN(CCc2ccc(Cl)cc2Cl)C(=O)CCN2C(=O)c3ccccc3C2=O)cc1OC [Gbcf]

inhibition at 0.33 µM (human liver cathepsin D; [1]): ≥ 50%
SMILES: O=C(CCn1c(=O)oc2ccccc21)N[C@@H](Cc1ccccc1)[C@@H](O)CN(CCc1ccc(Cl)cc1Cl)C(=O)COc1c(Cl)cc(Cl)cc1Cl [FAA]

inhibition at 0.33 µM (human liver cathepsin D; [1]): ≥ 50%
SMILES: O=C(CCN1C(=O)c2ccccc2C1=O)N[C@@H](Cc1ccccc1)[C@@H](O)CN(CCc1ccc(Cl)cc1Cl)C(=O)COc1c(Cl)cc(Cl)cc1Cl [FAH]

inhibition at 0.33 µM (human liver cathepsin D; [1]): ≥ 50%
SMILES: O=C(CCn1c(=O)oc2ccccc21)N[C@@H](Cc1ccccc1)[C@@H](O)CN(CCc1ccc(Cl)cc1Cl)C(=O)CCc1ccc(Cl)c(Cl)c1 [FFA]

inhibition at 0.33 µM (human liver cathepsin D; [1]): ≥ 50%
SMILES: O=C(COc1cc(Cl)c(Cl)cc1Cl)N[C@@H](Cc1ccccc1)[C@@H](O)CN(CCc1ccc2c(c1)OCO2)C(=O)CCc1ccc(Cl)c(Cl)c1 [EFD]

inhibition at 0.1 µM (human liver cathepsin D; [4]): ≥ 50%
inhibition at 0.33 µM (human liver cathepsin D; [1]): ≥ 50%
SMILES: O=C(CCc1ccc2c(c1)OCO2)N[C@@H](Cc1ccccc1)[C@@H](O)CN(CCc1ccc2c(c1)OCO2)C(=O)CCN1C(=O)c2ccccc2C1=O [EHI]

inhibition at 0.1 µM (human liver cathepsin D; [4]): ≥ 50%
inhibition at 0.33 µM (human liver cathepsin D; [1]): ≥ 50%
Ki (cathepsin D; [5]): 0.231 ± 0.031 µM
SMILES: O=C(CCn1c(=O)oc2ccccc21)N[C@@H](Cc1ccccc1)[C@@H](O)CN(CCc1ccc(Cl)cc1Cl)C(=O)CCN1C(=O)c2ccccc2C1=O [FHA]

IC50 (cathepsin D; [2]): 0.064 ± 0.006 µM
Ki (cathepsin D; [3]): 0.059 µM
SMILES: COc1cc(Br)c(C(=O)N[C@@H](Cc2ccccc2)[C@@H](O)CN(CCc2ccc3c(c2)OCO3)C(=O)CCN2C(=O)c3ccccc3C2=O)cc1OC [EHS]

inhibition at 0.1 µM (human liver cathepsin D; [4]): ≥ 50%
inhibition at 0.33 µM (human liver cathepsin D; [1]): ≥ 50%
SMILES: O=C(CCn1c(=O)oc2ccccc21)N[C@@H](Cc1ccccc1)[C@@H](O)CN(CCc1ccc2c(c1)OCO2)C(=O)COc1c(Cl)cc(Cl)cc1Cl [EAA]

Ki (cathepsin D; [6]): 0.0026 ± 0.0002 µM
SMILES: COc1cc(Br)c(C(=O)N[C@@H](Cc2ccc(-c3ccccc3)cc2)C(O)CN(CCc2ccc(Cl)cc2Cl)C(=O)CCN2C(=O)c3ccccc3C2=O)cc1OC (stereo partly drawn) [Obcf]

IC50 (cathepsin D; [2]): 0.018 ± 0.002 µM
Ki (cathepsin D; [3]): 0.014 µM
SMILES: O=C(COc1ccc(Cl)c(Cl)c1)N[C@@H](Cc1ccccc1)[C@@H](O)CN(CCc1ccc(Cl)cc1Cl)C(=O)CCN1C(=O)c2ccccc2C1=O [FHO]

IC50 (cathepsin D; [2]): 0.019 ± 0.002 µM
Ki (cathepsin D; [3]): 0.015 µM
SMILES: O=C(COc1ccc(Cl)c(Cl)c1)N[C@@H](Cc1ccccc1)[C@@H](O)CN(CCc1ccc2c(c1)OCO2)C(=O)CCN1C(=O)c2ccccc2C1=O [EHO]

inhibition at 0.1 µM (human liver cathepsin D; [4]): ≥ 50%
inhibition at 0.33 µM (human liver cathepsin D; [1]): ≥ 50%
Ki (cathepsin D; [5]): 0.073 ± 0.009 µM
SMILES: O=C(COc1cc(Cl)c(Cl)cc1Cl)N[C@@H](Cc1ccccc1)[C@@H](O)CN(CCc1ccc2c(c1)OCO2)C(=O)CCN1C(=O)c2ccccc2C1=O [EHD]

inhibition at 0.33 µM (human liver cathepsin D; [1]): ≥ 50%
SMILES: O=C(N[C@@H](Cc1ccccc1)[C@@H](O)CN(CCc1ccc2c(c1)OCO2)C(=O)/C=C/c1cc2c(cc1Br)OCO2)c1ccc([N+](=O)[O-])cc1Cl [EEF]
